Test results from US12077503B2, “Substituted cyclic amides and their use as herbicides” (FMC CORPORATION, priority 2015, dated 2024).
Where two headings read alike, the source gives them in different places.

Legend:
Assay in all cases: Test A preemergence
Type in all cases: in vivo
[1] = test system: giant foxtail (Setaria faberii); details: Setaria faberi, pre-emergence, 240 h; for pest or weed control at 125 g/ha: 125 g ai/ha; for pest or weed control at 500 g/ha: 500 g ai/ha
In short: (§1)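 Preemergence directed soil spray on seeded pots, or postemergence application to plants 2–10 cm, one- to two-leaf. Solvent mixture non-phytotoxic, with surfactant. Scored ~10 d later, visually, 0–100 vs untreated.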

[2] = test system: ragweed (common ragweed, Ambrosia elatior); details: Ambrosia artemisiifolia, pre-emergence, 240 h; for pest or weed control at 125 g/ha: 125 g ai/ha; for pest or weed control at 500 g/ha: 500 g ai/ha
In short: as §1

[3] = test system: ryegrass, Italian (Italian ryegrass, Lolium multiflorum); details: Lolium multiflorum, pre-emergence, 240 h; for pest or weed control at 125 g/ha: 125 g ai/ha; for pest or weed control at 500 g/ha: 500 g ai/ha
In short: as §1

Kochia (Kochia scoparia) = details: Bassia scoparia, pre-emergence, 240 h; for pest or weed control at 125 g/ha: 125 g ai/ha; for pest or weed control at 500 g/ha: 500 g ai/ha
In short: as §1

[4] = test system: barnyardgrass (Echinochloa crus-galli); details: Echinochloa crus-galli, pre-emergence, 240 h; for pest or weed control at 125 g/ha: 125 g ai/ha; for pest or weed control at 500 g/ha: 500 g ai/ha
In short: as §1

[5] = preemergence, 0 to 100 scale where 0 is no effect and 100 is complete control, approx. 10 d, read-out: Foxtail, Giant plant response rating
[6] = preemergence, 0 to 100 scale where 0 is no effect and 100 is complete control, read-out: Foxtail, Giant plant response rating
[7] = preemergence, 0 to 100 scale where 0 is no effect and 100 is complete control, approx. 10 d, read-out: Ragweed plant response rating
[8] = preemergence, 0 to 100 scale where 0 is no effect and 100 is complete control, read-out: Ragweed plant response rating
[9] = preemergence, 0 to 100 scale where 0 is no effect and 100 is complete control, approx. 10 d, read-out: Ryegrass, Italian plant response rating
[10] = preemergence, 0 to 100 scale where 0 is no effect and 100 is complete control, read-out: Ryegrass, Italian plant response rating
[11] = preemergence, 0 to 100 scale where 0 is no effect and 100 is complete control, approx. 10 d, read-out: Kochia plant response rating
[12] = preemergence, 0 to 100 scale where 0 is no effect and 100 is complete control, read-out: Kochia plant response rating
[13] = preemergence, 0 to 100 scale where 0 is no effect and 100 is complete control, approx. 10 d, read-out: Barnyardgrass plant response rating
[14] = preemergence, 0 to 100 scale where 0 is no effect and 100 is complete control, read-out: Barnyardgrass plant response rating
[15] = Preemergence, visual injury vs untreated controls after approximately 10 d, read-out: Foxtail, Giant plant response rating (0 to 100 scale where 0 is no effect and 100 is complete control)
[16] = Preemergence, visual injury vs untreated controls after approximately 10 d, read-out: Ragweed plant response rating (0 to 100 scale where 0 is no effect and 100 is complete control)
[17] = Preemergence, visual injury vs untreated controls after approximately 10 d, read-out: Ryegrass, Italian plant response rating (0 to 100 scale where 0 is no effect and 100 is complete control)
[18] = Preemergence, visual injury vs untreated controls after approximately 10 d, read-out: Kochia plant response rating (0 to 100 scale where 0 is no effect and 100 is complete control)
[19] = Preemergence, visual injury vs untreated controls after approximately 10 d, read-out: Barnyardgrass plant response rating (0 to 100 scale where 0 is no effect and 100 is complete control)
[20] = Preemergence, visual injury rating after approximately 10 d, read-out: Foxtail, Giant plant response rating (0 to 100 scale, 0 is no effect, 100 is complete control)
[21] = preemergence, visual injury rating about 10 d after treatment, 0 to 100 scale (0 no effect, 100 complete control), read-out: Foxtail, Giant plant response rating
[22] = Preemergence, visual injury rating after approximately 10 d, read-out: Ragweed plant response rating (0 to 100 scale, 0 is no effect, 100 is complete control)
[23] = preemergence, visual injury rating about 10 d after treatment, 0 to 100 scale (0 no effect, 100 complete control), read-out: Ragweed plant response rating
[24] = Preemergence, visual injury rating after approximately 10 d, read-out: Ryegrass, Italian plant response rating (0 to 100 scale, 0 is no effect, 100 is complete control)
[25] = preemergence, visual injury rating about 10 d after treatment, 0 to 100 scale (0 no effect, 100 complete control), read-out: Ryegrass, Italian plant response rating
[26] = Preemergence, visual injury rating after approximately 10 d, read-out: Kochia plant response rating (0 to 100 scale, 0 is no effect, 100 is complete control)
[27] = preemergence, visual injury rating about 10 d after treatment, 0 to 100 scale (0 no effect, 100 complete control), read-out: Kochia plant response rating
[28] = Preemergence, visual injury rating after approximately 10 d, read-out: Barnyardgrass plant response rating (0 to 100 scale, 0 is no effect, 100 is complete control)
[29] = preemergence, visual injury rating about 10 d after treatment, 0 to 100 scale (0 no effect, 100 complete control), read-out: Barnyardgrass plant response rating

Row | SMILES | pest or weed control at 125 g/ha [1, 20] | pest or weed control at 500 g/ha [1, 21] | pest or weed control at 125 g/ha [2, 22] | pest or weed control at 500 g/ha [2, 23] | pest or weed control at 125 g/ha [3, 24] | pest or weed control at 500 g/ha [3, 25] | pest or weed control at 125 g/ha (Kochia (Kochia scoparia); [26]) | pest or weed control at 500 g/ha (Kochia (Kochia scoparia); [27]) | pest or weed control at 125 g/ha [4, 28] | pest or weed control at 500 g/ha [4, 29] | further results
1 | CN1C[C@H](c2ccc3c(c2)OCO3)[C@@H](C(=O)Nc2cccc(F)c2F)C1=O [Compound 1126] | – | – | – | – | – | – | – | – | – | – | pest or weed control at 125 g/ha [1, 5]: 90%; pest or weed control at 500 g/ha [1, 6]: 90%; pest or weed control at 125 g/ha [2, 7]: 60%; pest or weed control at 500 g/ha [2, 8]: 50%; pest or weed control at 125 g/ha [3, 9]: 0%; pest or weed control at 500 g/ha [3, 10]: 70%; pest or weed control at 125 g/ha (Kochia (Kochia scoparia); [11]): 70%; pest or weed control at 500 g/ha (Kochia (Kochia scoparia); [12]): 80%; pest or weed control at 125 g/ha [4, 13]: 90%; pest or weed control at 500 g/ha [4, 14]: 90%
2 | CN1C[C@H](c2cc(F)c(F)c(F)c2)[C@@H](C(=O)Nc2cccc(F)c2F)C1=O [Compound 879] | – | – | – | – | – | – | – | – | – | – | pest or weed control at 125 g/ha [1, 6]: 100%; pest or weed control at 500 g/ha [1, 15]: 100%; pest or weed control at 125 g/ha [2, 8]: 50%; pest or weed control at 500 g/ha [2, 16]: 90%; pest or weed control at 125 g/ha [3, 10]: 60%; pest or weed control at 500 g/ha [3, 17]: 90%; pest or weed control at 125 g/ha (Kochia (Kochia scoparia); [12]): 80%; pest or weed control at 500 g/ha (Kochia (Kochia scoparia); [18]): 90%; pest or weed control at 125 g/ha [4, 14]: 100%; pest or weed control at 500 g/ha [4, 19]: 100%
3 | Cc1cc([C@H]2CN(C)C(=O)[C@@H]2C(=O)Nc2cccc(F)c2F)cc(C)c1Br [Compound 1024] | 90% | 90% | 0% | 30% | 0% | 90% | 30% | 40% | 70% | 90% | –
4 | CN1C[C@H](c2cc(F)cc(F)c2)[C@@H](C(=O)Nc2cc(O)ccc2F)C1=O [Compound 992] | 0% | 0% | 0% | 0% | 0% | 0% | 0% | 0% | 0% | 0% | –
5 | CSc1ccccc1NC(=O)[C@H]1C(=O)NC[C@@H]1c1cc(F)cc(Cl)c1 [Compound 977] | 90% | 90% | 70% | 100% | 0% | 40% | 90% | 90% | 90% | 90% | –
6 | Cc1cc([C@H]2CN(C)C(=O)[C@@H]2C(=O)Nc2ccc(F)cc2F)ccc1Br [Compound 1100] | – | 90% | – | 0% | – | 30% | – | 60% | – | 90% | pest or weed control at 125 g/ha [1, 5]: 90%; pest or weed control at 125 g/ha [2, 7]: 0%; pest or weed control at 125 g/ha [3, 9]: 0%; pest or weed control at 125 g/ha (Kochia (Kochia scoparia); [11]): 50%; pest or weed control at 125 g/ha [4, 13]: 90%
7 | Cc1ccc([C@H]2CN(C)C(=O)[C@@H]2C(=O)Nc2ccccc2F)cc1C [Compound 1038] | 100% | 100% | 20% | 70% | 30% | 70% | 80% | 80% | 100% | 100% | –
8 | Cc1cc(C)cc([C@H]2CNC(=O)[C@@H]2C(=O)Nc2ccccc2F)c1 [Compound 888] | – | – | – | – | – | – | – | – | – | – | pest or weed control at 125 g/ha [1, 6]: 80%; pest or weed control at 500 g/ha [1, 15]: 90%; pest or weed control at 125 g/ha [2, 8]: 0%; pest or weed control at 500 g/ha [2, 16]: 0%; pest or weed control at 125 g/ha [3, 10]: 0%; pest or weed control at 500 g/ha [3, 17]: 60%; pest or weed control at 125 g/ha (Kochia (Kochia scoparia); [12]): 60%; pest or weed control at 500 g/ha (Kochia (Kochia scoparia); [18]): 80%; pest or weed control at 125 g/ha [4, 14]: 90%; pest or weed control at 500 g/ha [4, 19]: 90%
9 | Cc1ccc([C@H]2CN(C)C(=O)[C@]2(O)C(=O)Nc2cccc(F)c2F)cc1 (racemic) [Compound 1059] | 70% | 80% | – | 30% | – | 0% | – | 20% | 70% | 90% | pest or weed control at 125 g/ha [2, 7]: 0%; pest or weed control at 125 g/ha [3, 9]: 0%; pest or weed control at 125 g/ha (Kochia (Kochia scoparia); [11]): 0%
10 | CN1CC[C@H](c2ccc(OC(F)(F)F)cc2)[C@@H](C(=O)Nc2ccccc2C(F)(F)F)C1=O [Compound 998] | 0% | 0% | 0% | 0% | 0% | 0% | 0% | 0% | 0% | 0% | –
11 | CN1CC[C@H](c2cccc(Cl)c2)[C@@H](C(=O)Nc2cccc(Cl)c2F)C1=O [Compound 924] | – | – | – | – | – | – | – | – | – | – | pest or weed control at 125 g/ha [1, 6]: 90%; pest or weed control at 500 g/ha [1, 15]: 90%; pest or weed control at 125 g/ha [2, 8]: 0%; pest or weed control at 500 g/ha [2, 16]: 0%; pest or weed control at 125 g/ha [3, 10]: 20%; pest or weed control at 500 g/ha [3, 17]: 70%; pest or weed control at 125 g/ha (Kochia (Kochia scoparia); [12]): 0%; pest or weed control at 500 g/ha (Kochia (Kochia scoparia); [18]): 0%; pest or weed control at 125 g/ha [4, 14]: 90%; pest or weed control at 500 g/ha [4, 19]: 90%
